According to PubChem BioAssay AID2060342 (Molecular Pharmacology Branch, DTP, NCI, 2025):

Tested on: 171881-019-R-J1-PDC multicell spheroid viability
Assay: Anticancer human tumor 171881-019-R-J1-PDC patient-derived invasive breast carcinoma cell line growth inhibition [IpAb]
Conditions: for IC50: curve of first compound; for viability, T/C: stronger effect = lower value
Outline: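 Multi-cell spheroids of 60% tumour cells, 25% HUVEC and 15% MSC in ultra-low-attachment U-bottom wells, treated with agents combined with ipatasertib or abemaciclib. Half-log ranges top out near clinical Cmax, or 10 microM when Cmax is unknown.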

[1] = second compound 0.01 µM, first compound 0.0316 µM
[2] = second compound 0.01 µM, first compound 0.1 µM
[3] = second compound 0.0316 µM, first compound 0.0316 µM
[4] = second compound 0.0316 µM, first compound 0.1 µM
[5] = second compound 0.1 µM, first compound 0.0316 µM
[6] = second compound 0.1 µM, first compound 0.1 µM
[7] = second compound 0.316 µM, first compound 0.0316 µM
[8] = second compound 0.316 µM, first compound 0.1 µM
[9] = second compound 1 µM, first compound 0.0316 µM
[10] = second compound 1 µM, first compound 0.1 µM
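Further: spheroids exposed to the agents for seven days before readout.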

Structure (SMILES): Cn1ncc(Cl)c1-c1cc(C(=O)NC(CN)Cc2cccc(F)c2)sc1Cl (stereo not given) + CCN1CCN(Cc2ccc(Nc3ncc(F)c(-c4cc(F)c5nc(C)n(C(C)C)c5c4)n3)nc2)CC1
- IC50 (second compound 0.01 µM): 183 nM
- IC50 (second compound 0.0316 µM): 176 nM
- IC50 (second compound 0.1 µM): 167 nM
- IC50 (second compound 0.316 µM): 207 nM
- IC50 (second compound 1 µM): 345 nM
- viability, T/C [1]: 116%
- viability, T/C [2]: 69.1%
- viability, T/C (second compound 0.01 µM, first compound 0.316 µM): 31.4%
- viability, T/C (second compound 0.01 µM, first compound 1 µM): 16.8%
- viability, T/C (second compound 0.01 µM, first compound 3.16 µM): 3.11%
- viability, T/C (second compound 0.01 µM, first compound 10 µM): 0.48%
- viability, T/C [3]: 116%
- viability, T/C [4]: 67.4%
- viability, T/C (second compound 0.0316 µM, first compound 0.316 µM): 31.1%
- viability, T/C (second compound 0.0316 µM, first compound 1 µM): 15.9%
- viability, T/C (second compound 0.0316 µM, first compound 3.16 µM): 4.15%
- viability, T/C (second compound 0.0316 µM, first compound 10 µM): 0.13%
- viability, T/C [5]: 103%
- viability, T/C [6]: 66.2%
- viability, T/C (second compound 0.1 µM, first compound 0.316 µM): 28%
- viability, T/C (second compound 0.1 µM, first compound 1 µM): 17.3%
- viability, T/C (second compound 0.1 µM, first compound 3.16 µM): 3.84%
- viability, T/C (second compound 0.1 µM, first compound 10 µM): 0.58%
- viability, T/C [7]: 107%
- viability, T/C [8]: 73.2%
- viability, T/C (second compound 0.316 µM, first compound 0.316 µM): 34%
- viability, T/C (second compound 0.316 µM, first compound 1 µM): 19.4%
- viability, T/C (second compound 0.316 µM, first compound 3.16 µM): 4.04%
- viability, T/C (second compound 0.316 µM, first compound 10 µM): 0.34%
- viability, T/C [9]: 122%
- viability, T/C [10]: 87.9%
- viability, T/C (second compound 1 µM, first compound 0.316 µM): 50.1%
- viability, T/C (second compound 1 µM, first compound 1 µM): 27.3%
- viability, T/C (second compound 1 µM, first compound 3.16 µM): 8.61%
- viability, T/C (second compound 1 µM, first compound 10 µM): 0.61%

Structure (SMILES): Cn1ncnc1[C@H]1c2n[nH]c(=O)c3cc(F)cc(c23)N[C@@H]1c1ccc(F)cc1 + CCN1CCN(Cc2ccc(Nc3ncc(F)c(-c4cc(F)c5nc(C)n(C(C)C)c5c4)n3)nc2)CC1
- IC50 (second compound 0.01 µM): > 100 nM
- IC50 (second compound 0.0316 µM): > 100 nM
- IC50 (second compound 0.1 µM): > 100 nM
- IC50 (second compound 0.316 µM): > 100 nM
- IC50 (second compound 1 µM): > 100 nM
- viability, T/C (second compound 0.01 µM, first compound 0.000316 µM): 88.2%
- viability, T/C (second compound 0.01 µM, first compound 0.001 µM): 99.7%
- viability, T/C (second compound 0.01 µM, first compound 0.00316 µM): 86.9%
- viability, T/C (second compound 0.01 µM, first compound 0.01 µM): 102%
- viability, T/C [1]: 95.5%
- viability, T/C [2]: 109%
- viability, T/C (second compound 0.0316 µM, first compound 0.000316 µM): 109%
- viability, T/C (second compound 0.0316 µM, first compound 0.001 µM): 96.2%
- viability, T/C (second compound 0.0316 µM, first compound 0.00316 µM): 113%
- viability, T/C (second compound 0.0316 µM, first compound 0.01 µM): 114%
- viability, T/C [3]: 104%
- viability, T/C [4]: 113%
- viability, T/C (second compound 0.1 µM, first compound 0.000316 µM): 118%
- viability, T/C (second compound 0.1 µM, first compound 0.001 µM): 118%
- viability, T/C (second compound 0.1 µM, first compound 0.00316 µM): 115%
- viability, T/C (second compound 0.1 µM, first compound 0.01 µM): 114%
- viability, T/C [5]: 116%
- viability, T/C [6]: 113%
- viability, T/C (second compound 0.316 µM, first compound 0.000316 µM): 126%
- viability, T/C (second compound 0.316 µM, first compound 0.001 µM): 132%
- viability, T/C (second compound 0.316 µM, first compound 0.00316 µM): 124%
- viability, T/C (second compound 0.316 µM, first compound 0.01 µM): 127%
- viability, T/C [7]: 130%
- viability, T/C [8]: 126%
- viability, T/C (second compound 1 µM, first compound 0.000316 µM): 143%
- viability, T/C (second compound 1 µM, first compound 0.001 µM): 141%
- viability, T/C (second compound 1 µM, first compound 0.00316 µM): 140%
- viability, T/C (second compound 1 µM, first compound 0.01 µM): 135%
- viability, T/C [9]: 137%
- viability, T/C [10]: 138%
